Reference: PubChem BioAssay (NCI)
“And” between values parts separate entries of the source, which are not always exact repeats. Equal entries are not always repeated.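 Five compound concentrations were applied to cells in 96-well plates for 48 hours; endpoints were derived by simple linear interpolation of the resulting dose-response curve. GI50: concentration for 50% inhibition of growth. TGI denotes the concentration required for complete inhibition of growth.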

These compounds were tested on BT-549 breast (assay: NCI tumour cell line growth inhibition, 48 h).

Row | Structure (SMILES) | GI50 [µM] | TGI
1 | NC(CSC(c1ccccc1)(c1ccccc1)c1ccc2c(c1)OCO2)C(=O)O (centres undefined) | 0.559 | 75.9 µM
2 | O=C(NCCNc1nccc(-c2c(-c3cccc(O)c3)nc3sccn23)n1)c1ccccc1O | 4.74 | 34.9 µM
3 | CCCCCCCC(=O)SCC/C=C/[C@@H]1CC(=O)NCc2cccc(n2)C2=N[C@@](C)(CS2)C(=O)N[C@@H](C(C)C)C(=O)N1 | 5.04 | > 33.3 µM
4 | C[C@@H](CS(C)(=O)=O)Nc1ncc2cc(Oc3ccc(F)cc3F)c(=O)n(C)c2n1 | > 25 | > 25 µM
5 | COc1cc2c(c(OC)c1O)C(=O)C(OC)C(c1ccc(O)c(O)c1)O2 (centres undefined) | 0.362 | > 100 µM
6 | Cn1ccnc1C(=O)/C=C/c1ccc(CC(=O)Nc2ccc(Br)cc2)cc1 | 2.93 | 6.43 µM
7 | CCOC(=O)Nc1nc2ccc(OCC)cc2s1 | > 100 | > 100 µM
8 | COC(=O)[C@@H](C)C[C@H](Cc1ccc(F)cc1)NC(=O)c1csc([C@@H](C[C@H](C(C)C)N(C)C(=O)[C@@H](NC(=O)[C@H]2CCCCN2C)C(C)C)OC(C)=O)n1 | – | 0.0568 µM and 0.261 µM
9 | COc1ccc2c(c1)C(=O)/C(=C/c1ccc(OCC(=O)Nc3nccs3)cc1)O2 | 3.86 | 15.3 µM
10 | Cc1cnc(NC(=O)C(Cc2ccccc2)NC(=O)c2ccccc2)s1 (centres undefined) | 29.1 | > 100 µM
11 | O=[N+]([O-])c1cnc(Sc2ccncn2)s1 | 4.84 | 9.55 µM
12 | O=C(Nc1ccc(I)cc1)c1cc([N+](=O)[O-])ccc1O | 5.36 | 27.1 µM
13 | Cc1cc(=O)n2[nH]c(-c3ccc(C(C)(C)C)cc3)cc2n1 | 17.4 | > 100 µM
14 | CNC(=O)c1ccccc1Nc1nc(Nc2ccc(N3CCOCC3)cc2OC)ncc1Cl | 2.58 | > 39.1 µM
15 | COc1c2ccoc2c(/C=C/C=O)c2oc(-c3ccccc3)cc(=O)c12 | 2.88 | 13.1 µM
16 | O=C(CN1CCN(c2cc3c(cc2F)c(=O)c(C(=O)N/N=C/c2ccccc2O)cn3C2CC2)CC1)N/N=C\c1ccccc1O | 1.51 | > 100 µM
17 | C=C(CNCCO)[C@@H]1CC[C@]2(CO)CC[C@]3(C)[C@H](CC[C@@H]4[C@@]5(C)CCC(N)C(C)(C)[C@@H]5CC[C@]43C)[C@@H]12 (some centres undefined) | 2.07 | 4.9 µM
18 | Nc1cc2nc3ccccc3sc-2cc1=O | 1.61 | 3.32 µM
19 | COc1cc2nc(-c3ccc(C(F)(F)F)cc3)cc(OCCCN3CCC(O)CC3)c2cc1OC | 6.59 | 22.1 µM
20 | COc1cc(C(=O)/C=C/c2sc(Cl)nc2Cl)cc(OC)c1OC | 1.87 | 3.6 µM
21 | CNC(=O)c1cc(Oc2ccc3nc(NC(=O)Nc4ccc(Cl)c(C(F)(F)F)c4)sc3c2)ccn1 | 2.64 | 9.73 µM
22 | O=C(CCl)N1c2ccccc2Oc2ccc3ccccc3c21 | 1.79 | 3.56 µM

The compounds below were run on MCF7 breast (assay: NCI tumour cell line growth inhibition, 48 h).

Row | Structure (SMILES) | GI50 [µM] | TGI [µM]
23 | NC(CSC(c1ccccc1)(c1ccccc1)c1ccc2c(c1)OCO2)C(=O)O (centres undefined) | 0.298 | 40.2
24 | O=C(NCCNc1nccc(-c2c(-c3cccc(O)c3)nc3sccn23)n1)c1ccccc1O | 3.27 | 19.9
25 | CCCCCCCC(=O)SCC/C=C/[C@@H]1CC(=O)NCc2cccc(n2)C2=N[C@@](C)(CS2)C(=O)N[C@@H](C(C)C)C(=O)N1 | 0.623 | > 33.3
26 | C[C@@H](CS(C)(=O)=O)Nc1ncc2cc(Oc3ccc(F)cc3F)c(=O)n(C)c2n1 | > 25 | > 25
27 | COc1cc2c(c(OC)c1O)C(=O)C(OC)C(c1ccc(O)c(O)c1)O2 (centres undefined) | 0.391 | > 100
28 | Cn1ccnc1C(=O)/C=C/c1ccc(CC(=O)Nc2ccc(Br)cc2)cc1 | 1.84 | > 16.7
29 | CCOC(=O)Nc1nc2ccc(OCC)cc2s1 | 4.14 | > 100
30 | COC(=O)[C@@H](C)C[C@H](Cc1ccc(F)cc1)NC(=O)c1csc([C@@H](C[C@H](C(C)C)N(C)C(=O)[C@@H](NC(=O)[C@H]2CCCCN2C)C(C)C)OC(C)=O)n1 | – | > 16.7
31 | COc1ccc2c(c1)C(=O)/C(=C/c1ccc(OCC(=O)Nc3nccs3)cc1)O2 | 5.75 | 18
32 | Cc1cnc(NC(=O)C(Cc2ccccc2)NC(=O)c2ccccc2)s1 (centres undefined) | 1.55 | 5.12
33 | CC(C)c1ccc(C(C)C(=O)N(CC2=C(C(C)c3ccccn3)c3ccccc3C2)C(C)C)cc1 (centres undefined) | 3.23 | 11.4
34 | O=[N+]([O-])c1cnc(Sc2ccncn2)s1 | 1.65 | 3.45
35 | O=C(Nc1ccc(I)cc1)c1cc([N+](=O)[O-])ccc1O | 3.93 | > 100
36 | Cc1cc(=O)n2[nH]c(-c3ccc(C(C)(C)C)cc3)cc2n1 | 7.43 | > 100
37 | CNC(=O)c1ccccc1Nc1nc(Nc2ccc(N3CCOCC3)cc2OC)ncc1Cl | 0.133 | > 50.7
38 | COc1c2ccoc2c(/C=C/C=O)c2oc(-c3ccccc3)cc(=O)c12 | 2.72 | 58.3
39 | O=C(CN1CCN(c2cc3c(cc2F)c(=O)c(C(=O)N/N=C/c2ccccc2O)cn3C2CC2)CC1)N/N=C\c1ccccc1O | 0.398 | > 100
40 | C=C(CNCCO)[C@@H]1CC[C@]2(CO)CC[C@]3(C)[C@H](CC[C@@H]4[C@@]5(C)CCC(N)C(C)(C)[C@@H]5CC[C@]43C)[C@@H]12 (some centres undefined) | 1.77 | 3.57
41 | Nc1cc2nc3ccccc3sc-2cc1=O | 2.38 | 9.63
42 | COc1cc2nc(-c3ccc(C(F)(F)F)cc3)cc(OCCCN3CCC(O)CC3)c2cc1OC | 2.57 | 18.2
43 | COc1cc(C(=O)/C=C/c2sc(Cl)nc2Cl)cc(OC)c1OC | 1.78 | 3.68

The compounds below were run on MDA-MB-231 breast (assay: NCI tumour cell line growth inhibition, 48 h).

Row | Structure (SMILES) | GI50 | TGI [µM]
44 | NC(CSC(c1ccccc1)(c1ccccc1)c1ccc2c(c1)OCO2)C(=O)O (centres undefined) | 0.365 µM | 14.4
45 | O=C(NCCNc1nccc(-c2c(-c3cccc(O)c3)nc3sccn23)n1)c1ccccc1O | 2.87 µM | 32
46 | CCCCCCCC(=O)SCC/C=C/[C@@H]1CC(=O)NCc2cccc(n2)C2=N[C@@](C)(CS2)C(=O)N[C@@H](C(C)C)C(=O)N1 | 2.08 µM | > 33.3
47 | C[C@@H](CS(C)(=O)=O)Nc1ncc2cc(Oc3ccc(F)cc3F)c(=O)n(C)c2n1 | > 25 µM | > 25
48 | COc1cc2c(c(OC)c1O)C(=O)C(OC)C(c1ccc(O)c(O)c1)O2 (centres undefined) | 0.554 µM | > 100
49 | Cn1ccnc1C(=O)/C=C/c1ccc(CC(=O)Nc2ccc(Br)cc2)cc1 | 4.78 µM | 15.6
50 | CCOC(=O)Nc1nc2ccc(OCC)cc2s1 | > 100 µM | > 100
51 | COC(=O)[C@@H](C)C[C@H](Cc1ccc(F)cc1)NC(=O)c1csc([C@@H](C[C@H](C(C)C)N(C)C(=O)[C@@H](NC(=O)[C@H]2CCCCN2C)C(C)C)OC(C)=O)n1 | 0.0023 µM and 0.0158 µM | –
52 | COc1ccc2c(c1)C(=O)/C(=C/c1ccc(OCC(=O)Nc3nccs3)cc1)O2 | 0.748 µM | 5.78
53 | Cc1cnc(NC(=O)C(Cc2ccccc2)NC(=O)c2ccccc2)s1 (centres undefined) | 6.42 µM | 27.1
54 | CC(C)c1ccc(C(C)C(=O)N(CC2=C(C(C)c3ccccn3)c3ccccc3C2)C(C)C)cc1 (centres undefined) | 3.47 µM | 22.7
55 | O=[N+]([O-])c1cnc(Sc2ccncn2)s1 | 3.98 µM | 15.1
56 | O=C(Nc1ccc(I)cc1)c1cc([N+](=O)[O-])ccc1O | 10 µM | 53.1
57 | Cc1cc(=O)n2[nH]c(-c3ccc(C(C)(C)C)cc3)cc2n1 | 13 µM | > 100
58 | CNC(=O)c1ccccc1Nc1nc(Nc2ccc(N3CCOCC3)cc2OC)ncc1Cl | 1.09 µM | 5.26
59 | COc1c2ccoc2c(/C=C/C=O)c2oc(-c3ccccc3)cc(=O)c12 | 4.1 µM | > 100
60 | O=C(CN1CCN(c2cc3c(cc2F)c(=O)c(C(=O)N/N=C/c2ccccc2O)cn3C2CC2)CC1)N/N=C\c1ccccc1O | 0.533 µM | > 69.3
61 | C=C(CNCCO)[C@@H]1CC[C@]2(CO)CC[C@]3(C)[C@H](CC[C@@H]4[C@@]5(C)CCC(N)C(C)(C)[C@@H]5CC[C@]43C)[C@@H]12 (some centres undefined) | 1.52 µM | 3.14
62 | Nc1cc2nc3ccccc3sc-2cc1=O | 1.76 µM | 11.8
63 | COc1cc2nc(-c3ccc(C(F)(F)F)cc3)cc(OCCCN3CCC(O)CC3)c2cc1OC | 0.919 µM | 15.6
64 | COc1cc(C(=O)/C=C/c2sc(Cl)nc2Cl)cc(OC)c1OC | 1.65 µM | 3.07
65 | CNC(=O)c1cc(Oc2ccc3nc(NC(=O)Nc4ccc(Cl)c(C(F)(F)F)c4)sc3c2)ccn1 | 1.43 µM | 4.29
66 | O=C(CCl)N1c2ccccc2Oc2ccc3ccccc3c21 | 1.28 µM | 2.81
